The results in this text go back to US12042561B2, “Hydrophobic molecule-induced branched polymer aggregates and their use” (ANP Technologies, Inc., priority 2011, dated 2024).

In data set [1] the test system is MCF-7 human breast cancer cells. Nature of the data set: Cell survivability (MTS), MCF-7. The following applies: varying concentrations based on amount of drug, FIG. 17. An excerpt: (§1) Metabolism in viable cells produces “reducing equivalents,” such as, NADH or NADPH. Such reducing compounds pass electrons to an intermediate electron transfer reagent that can reduce the tetrazolium product, MTS (Promega), into an aqueous, soluble formazan product, which is colored. At death, cells rapidly lose the ability to reduce tetrazolium products. The production of the colored formazan product, therefore, is proportional to the number of viable cells in culture.
(§2) The CellTiter 96® Aqueous products (Promega) are MTS assays for determining the number of viable cells in culture. […] A single reagent added directly to the assay wells at a recommended ratio of 20 μl reagent to 100 μl of culture medium was used. Cells were incubated 1-4 hours at 37° C. and then absorbance was measured at 490 nm.
(§3) Varying concentrations of CPT-11 and the camptothecin branched polymer aggregates described above were prepared.
(§4) Two cancer cell lines were maintained in suitable medium under recognized culture conditions. MCF-7 is a human breast cancer cell line and H460 is a human epithelial lung cancer cell line. Those cell lines were exposed to varying concentrations of CPT-11 and concentrations of the camptothecin aggregates based on the amount of drug. Cell survivability was assessed as described above.

The subject of data set [2] is H460 human epithelial lung cancer cells. Nature of the data set: Cell survivability (MTS), H460. The note with it: varying concentrations based on amount of drug, FIG. 18.
From the text: as §1, §2, §3, §4

For `CCc1c2c(nc3ccc(OC(=O)N4CCC(N5CCCCC5)CC4)cc13)-c1cc3c(c(=O)n1C2)COC(=O)[C@]3(O)CC` [CPT-11, Irinotecan], the cytotoxicity entry in data set [1] was “increased with increasing drug concentration”; in data set [2] it was “dose response curve of cytotoxicity”.
